Measurements as given in US20150265644A1, “THERAPEUTIC METHODS AND COMPOSITIONS FOR TREATING DIABETES UTILIZING DITERPENOID COMPOUNDS” (Orient Europharma Co., Ltd., priority 2014, published 2015).

Legend:
[1] = tested on: liver; assay: Glycogen content in liver in vivo; set-up: species or system mice; details: 10 mgkg^−1 i.p., 60 minutes
Protocol: The mice were injected with borapetoside A (10 mgkg^−1, interperitoneal) for 60 minutes or insulin (0.5 IUkg^−1, interperitoneal) for 30 minutes. After the treatment, the anesthetic mice were sacrificed by cervical dislocation to collect the soleus muscle and liver. About 40 mg of each sample was dissolved in 1 mol/L KOH at 75° C. for 30 min. The dissolved homogenate was neutralized by glacial acetic acid and then incubated overnight in acetate buffer (0.3 mol/L sodium acetate, pH 4.8) containing amyloglucosidase (Sigma, St. Louis, Mo.). The mixture was then neutralized with 1 mol/L NaOH to stop the reaction. The glycogen contents in the tissue samples were determined as μg of glucose per mg of tissue (wet weight).

[2] = Plasma insulin level before and after treatment in mice; type: in vivo
Protocol: The 4-week-old male ICR mice were purchased from the Animal Center of the College of Medicine, National Taiwan University (Taipei, Taiwan) with delicate humane care. This animal study was conducted by following the University ethical guidelines and the ‘Guide for the Care and Use of Laboratory Animals’ published by the US National Institutes of Health (NIH publication no. 85-23, revised 1996). The animal experiments were approved by the Institutional Animal Care and Use Committee (IACUC) of the National Taiwan University (IACUC No. 20110073). Animals were housed in a room at the constant temperature, 22±1° C., with 12 hours light and dark cycles.
After three days of acclimatization, the mice had free access to a standard rodent chow (normal mice), a standard rodent chow after single 250 mgkg^−1 streptozotocin (STZ) intraperitoneal injection (TIDM mice), and a fat-rich chow diet and fructose-sweetened water (T2DM mice) for 4 weeks. The induction of Type 1 DM was assessed and confirmed when the mice had plasma glucose levels ≧350 mgdL^−1, accompanied with polyuria, hyperphagia and decreased body weight. The induction Type 2 DM in the mice was assessed by measuring fasting plasma glucose levels and confirmed when plasma glucose level was ≧150 mgdL^−1 after the 4-week induction. The animals were assigned randomly into three groups, with seven animals in each group. In group I, the mice were treated with vehicle, 2% DMSO in normal saline, as the negative control. In group II, the mice were intraperitoneally treated with borapetoside A (0.1-10 mgkg^−1). In […], the mice received intraperitoneally metformin (300 mgkg^−1; Sigma Chemical Co., St. Louis, Mo., U.S.A.) or insulin (0.5 IUkg^−1; Insulin Actrapid® HM; Novo Nordisk, Denmark). In the acute study, mice under anesthesia received a single intraperitoneal administration of borapetoside A, negative control, or positive control. In the subacute study, mice received intraperitoneal administrations of borapetoside A, vehicle, or insulin twice a day for seven days.
Blood samples were collected from the orbital vascular plexus of the mice under anesthesia. Blood samples were then centrifuged at 13000 rpm for 5 min, and the plasma samples were collected and kept on ice prior to the assay. The plasma glucose concentration was measured by Glucose Kit Reagent (Biosystems S.A., Barcelona, Spain) following the manufacturer's instructions, and the insulin levels were estimated using mouse insulin ELISA kit (Mercodia AB, Uppsala, Sweden).

SMILES: C[C@@]12C[C@@H](c3ccoc3)OC(=O)[C@@H]1C[C@@H]1OC(=O)[C@@]3(O)[C@@H](O[C@@H]4O[C@H](CO)[C@@H](O)[C@H](O)[C@H]4O)CC[C@@H]2[C@@]13C [borapetoside A]
- glycogen content in liver, % of vehicle control ([1]; mice with type 1 DM): 196.9±15.6%
- glycogen content in liver, % of vehicle control ([1]; mice with type 2 DM): 146.1±12.0%
- glycogen content in liver, % of vehicle control ([1]; normal mice): 257.8±15.8%
- Plasma insulin ([2]; T1DM mice, 0.1 mg kg^−1, after-treatment): 22.7 ± 0.2 pmol/L
- Plasma insulin ([2]; T1DM mice, 0.1 mg kg^−1, before-treatment): 22.9 ± 0.1 pmol/L
- Plasma insulin ([2]; T1DM mice, 0.3 mg kg^−1, after-treatment): 22.7 ± 0.3 pmol/L
- Plasma insulin ([2]; T1DM mice, 0.3 mg kg^−1, before-treatment): 22.9 ± 0.1 pmol/L
- Plasma insulin ([2]; T1DM mice, 1 mg kg^−1, after-treatment): 23.0 ± 0.2 pmol/L
- Plasma insulin ([2]; T1DM mice, 1 mg kg^−1, before-treatment): 23.1 ± 0.2 pmol/L
- Plasma insulin ([2]; T1DM mice, 3 mg kg^−1, after-treatment): 23.0 ± 0.0 pmol/L
- Plasma insulin ([2]; T1DM mice, 3 mg kg^−1, before-treatment): 23.1 ± 0.2 pmol/L
- Plasma insulin ([2]; T1DM mice, 10 mg kg^−1, after-treatment): 23.0 ± 0.1 pmol/L
- Plasma insulin ([2]; T1DM mice, 10 mg kg^−1, before-treatment): 23.1 ± 0.1 pmol/L
- Plasma insulin ([2]; T2DM mice, 0.1 mg kg^−1, after-treatment): 134.5 ± 9.3 pmol/L
- Plasma insulin ([2]; T2DM mice, 0.1 mg kg^−1, before-treatment): 140.5 ± 4.1 pmol/L
- Plasma insulin ([2]; T2DM mice, 0.3 mg kg^−1, after-treatment): 149.0 ± 9.5 pmol/L
- Plasma insulin ([2]; T2DM mice, 0.3 mg kg^−1, before-treatment): 133.0 ± 4.2 pmol/L
- Plasma insulin ([2]; T2DM mice, 1 mg kg^−1, after-treatment): 123.7 ± 9.6 pmol/L
- Plasma insulin ([2]; T2DM mice, 1 mg kg^−1, before-treatment): 126.8 ± 5.7 pmol/L
- Plasma insulin ([2]; T2DM mice, 3 mg kg^−1, after-treatment): 184.3 ± 14.6 pmol/L
- Plasma insulin ([2]; T2DM mice, 3 mg kg^−1, before-treatment): 138.3 ± 3.6 pmol/L
- Plasma insulin ([2]; T2DM mice, 10 mg kg^−1, after-treatment): 205.3 ± 22.2 pmol/L
- Plasma insulin ([2]; T2DM mice, 10 mg kg^−1, before-treatment): 134.9 ± 3.5 pmol/L
- Plasma insulin ([2]; normal mice, 0.1 mg kg^−1, after-treatment): 68.3 ± 4.4 pmol/L
- Plasma insulin ([2]; normal mice, 0.1 mg kg^−1, before-treatment): 61.0 ± 4.6 pmol/L
- Plasma insulin ([2]; normal mice, 0.3 mg kg^−1, after-treatment): 129.4 ± 22.0 pmol/L
- Plasma insulin ([2]; normal mice, 0.3 mg kg^−1, before-treatment): 63.4 ± 3.9 pmol/L
- Plasma insulin ([2]; normal mice, 1 mg kg^−1, after-treatment): 118.8 ± 10.1 pmol/L
- Plasma insulin ([2]; normal mice, 1 mg kg^−1, before-treatment): 66.1 ± 5.4 pmol/L
- Plasma insulin ([2]; normal mice, 3 mg kg^−1, after-treatment): 121.2 ± 14.2 pmol/L
- Plasma insulin ([2]; normal mice, 3 mg kg^−1, before-treatment): 64.4 ± 3.6 pmol/L
- Plasma insulin ([2]; normal mice, 10 mg kg^−1, after-treatment): 108.2 ± 2.9 pmol/L
- Plasma insulin ([2]; normal mice, 10 mg kg^−1, before-treatment): 68.9 ± 1.3 pmol/L
